± gives the standard deviation of the averaged measurements.
Legend:
Danio rerio embryo [1] = assay: spontaneous tail coiling frequency (coils/min/embryo); higher = more spontaneous movement; settings: 25 hpf
Description: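 Spontaneous tail coilings of zebrafish embryos exposed from 2 hpf were recorded at 24-25 hpf in 1-min videos and detected by a KNIME workflow from grey-value variance. Betamethasone was tested as the dipropionate, diflorasone as the diacetate.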

Danio rerio embryo [2] = assay: EC20 Eye-jaw distance_Decrease; higher = less potent; settings: exposure time: 4 dpf
Description: (§1)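 Zebrafish embryos (UFZ-OBI strain) were exposed from 2 hpf for 48 h (2 dpf) or 96 h (4 dpf) at 28 °C; spontaneous tail coiling was scored at 25 hpf. Morphological features from automated image analysis (FishInspector), heart rate and locomotor response were fitted with drc models. Quantal endpoints were dichotomised at 2.5 SD from controls and fitted with a log-logistic model; heart rate, pigmentation and STC were normalised to the replicate control mean. Betamethasone was tested as betamethasone dipropionate, diflorasone as diflorasone diacetate.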

Danio rerio embryo [3] = assay: EC10 Eye size_Decrease; higher = less potent; settings: exposure time: 2 dpf
Description: as §1

Danio rerio embryo [4] = assay: EC20 Lack of SB; higher = less potent; settings: exposure time: 4 dpf
Description: as §1

Danio rerio embryo [5] = assay: EC50 Eye size_Decrease; settings: exposure time: 2 dpf
Description: as §1

Danio rerio embryo [6] = assay: EC10 Curvature_Increase; higher = less potent; settings: exposure time: 2 dpf
Description: as §1

Danio rerio embryo [7] = assay: EC20 Pericard size_Increase; higher = less potent; settings: exposure time: 2 dpf
Description: as §1

Danio rerio embryo [8] = assay: EC10 Any effect; higher = less potent
Description: as §1

Danio rerio embryo [9] = settings: exposure time: 4 dpf
Description: as §1

Danio rerio embryo [10] = settings: exposure time: 4 dpf; remark: listed apart in the source
Description: as §1

Danio rerio embryo [11] = assay: EC50 Pericard size_Increase; settings: exposure time: 2 dpf
Description: as §1

Danio rerio embryo [12] = assay: EC10 Bladder size_Decrease; higher = less potent; settings: exposure time: 4 dpf
Description: as §1

Danio rerio embryo [13] = assay: EC20 Pigmentation increase; higher = less potent; settings: exposure time: 4 dpf
Description: as §1

Danio rerio embryo [14] = assay: EC10 Body length_Decrease; higher = less potent
Description: as §1

Danio rerio embryo [15] = assay: EC10 Pericard size_Increase; higher = less potent; settings: exposure time: 2 dpf
Description: as §1

Danio rerio embryo [16] = assay: EC50 Eye-jaw distance_Decrease; settings: exposure time: 4 dpf
Description: as §1

Danio rerio embryo [17] = assay: EC10 LMR dark; higher = less potent; settings: exposure time: 4 dpf
Description: as §1

## CC1(C)OC(=O)C(OCC2CC2)=C1c1ccc(S(C)(=O)=O)cc1 [Firocoxib]
Danio rerio embryo [1]; 14.9 µM
  spontaneous tail coiling frequency: 2.83
Danio rerio embryo [1]; 29.7 µM
  spontaneous tail coiling frequency: 2.54 ± 0.46
Danio rerio embryo [1]; 59.4 µM
  spontaneous tail coiling frequency: 3.5
Danio rerio embryo [1]; 59.5 µM
  spontaneous tail coiling frequency: 2.46
Danio rerio embryo [1]; 89.2 µM
  spontaneous tail coiling frequency: 2.31
Danio rerio embryo [1]; 104 µM
  spontaneous tail coiling frequency: 3 ± 0.71
Danio rerio embryo [1]; 133.8 µM
  spontaneous tail coiling frequency: 3.06
Danio rerio embryo [2]
  EC20 Eye-jaw distance Decrease: 93.2 µM
Danio rerio embryo [3]
  EC10 Eye size Decrease: 77.4 µM
Danio rerio embryo [4]
  EC20 Lack of SB: 43.7 µM
Danio rerio embryo [5]
  EC50 Eye size Decrease: 128 µM
Danio rerio embryo [6]
  EC10 Curvature Increase: 74.2 µM
Danio rerio embryo [7]
  EC20 Pericard size Increase: 58.3 µM
Danio rerio embryo [8]; exposure time: 2 dpf
  EC10 Any effect: 55.3 µM
Danio rerio embryo [8]; exposure time: 4 dpf
  EC10 Any effect: 62.1 µM
Danio rerio embryo [9]
  EC50 Lack of SB: 64.6 µM
Danio rerio embryo [10]
  EC50 LMR dark: 53.7 µM
Danio rerio embryo [11]
  EC50 Pericard size Increase: 108 µM
Danio rerio embryo [12]
  EC10 Bladder size Decrease: 31.5 µM
Danio rerio embryo [13]
  EC20 Pigmentation increase: 100 µM
Danio rerio embryo [14]; exposure time: 2 dpf
  EC10 Body length Decrease: 70.3 µM
Danio rerio embryo [14]; exposure time: 4 dpf
  EC10 Body length Decrease: 85 µM
Danio rerio embryo [15]
  EC10 Pericard size Increase: 40.6 µM
Danio rerio embryo [16]
  EC50 Eye-jaw distance Decrease: 123 µM
Danio rerio embryo [17]
  EC10 LMR dark: 13.9 µM
